Laboratory results taken from PMC8729037 (European journal of pharmacology, 2019).

How the values were obtained:
[1] = system: c-Src, β-catenin, PYK-2 and the EGFR; conditions: A549 cells; ref Moody et al., 2014; cited from earlier work
[2] = biological target: neurotensin receptor 1 (Homo sapiens, UniProt P30989); test: Receptor binding, inhibition of specific
[3] = system: ERK; test: Western blot, ERK tyrosine phosphorylation; assay type: cell-based, human; conditions: 100 nM NTS; for Inhibition of NTS-induced ERK tyrosine phosphorylation (in words): 5 μM DPI or 5 mM Tiron, NCI-H838, Fig. 5
[4] = system: HER2; test: Western blot, HER2 tyrosine phosphorylation; assay type: cell-based, human; conditions: 100 nM NTS; for Inhibition of NTS-induced HER2 tyrosine phosphorylation (in words): 5 μM DPI or 5 mM Tiron, NCI-H838, Fig. 5
[5] = system: EGFR; test: Western blot, EGFR tyrosine phosphorylation; assay type: cell-based, human; conditions: 100 nM NTS; for Inhibition of NTS-induced EGFR tyrosine phosphorylation (in words): 5 μM DPI or 5 mM Tiron, NCI-H838, Fig. 5; for Effect on NTS-induced EGFR tyrosine phosphorylation (in words): Fig. 6
[6] = system: EGFR; conditions: NSCLC cell lines; ref Moody et al., 2014; cited from earlier work
[7] = system: PC-3M prostate cancer cells; conditions: ref Valerie et al., 2011; cited from earlier work
[8] = system: tubulin; test: Western blot, total tubulin; assay type: cell-based, human; conditions: lapatinib; control; Fig. 6
[9] = system: NCI-H838 cells; test: MTT proliferation assay, NCI-H838 cells; conditions: lapatinib combined with SR48692, Fig. 7
[10] = system: Nox and Duox enzymes; conditions: ref Moody et al., 2018; Doroshow et al., 2012; cited from earlier work
[11] = system: neurotensin receptor 1; conditions: colorectal cancer; ref Wang et al., 2010; cited from earlier work

neurotensin receptor 1 (Homo sapiens, UniProt P30989), sequence (P30989 whole entry): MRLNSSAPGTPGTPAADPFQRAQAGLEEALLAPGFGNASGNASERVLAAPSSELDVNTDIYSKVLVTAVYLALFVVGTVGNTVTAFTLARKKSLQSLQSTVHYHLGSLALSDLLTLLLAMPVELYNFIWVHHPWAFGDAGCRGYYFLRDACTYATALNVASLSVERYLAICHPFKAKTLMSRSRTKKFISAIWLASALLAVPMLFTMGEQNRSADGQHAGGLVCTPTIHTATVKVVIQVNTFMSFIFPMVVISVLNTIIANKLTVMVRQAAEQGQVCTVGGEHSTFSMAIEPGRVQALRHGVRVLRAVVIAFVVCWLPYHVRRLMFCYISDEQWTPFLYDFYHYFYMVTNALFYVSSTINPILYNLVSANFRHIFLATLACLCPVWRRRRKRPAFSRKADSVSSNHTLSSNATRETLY

COc1ccc2c(c1)CC[C@@H]1[C@@H]2CC[C@]2(C)[C@@H](NCCCCCCN3C(=O)C=CC3=O)CC[C@@H]12 [U73122]
Effect on neurotensin-induced EGFR tyrosine phosphorylation (in words) [1]: blocked

CC(C)(C)n1nc(-c2ccc(Cl)cc2)c2c(N)ncnc21 [PP2]
Effect on neurotensin-induced EGFR tyrosine phosphorylation (in words) [1]: blocked

COc1cc2ncnc(Nc3ccc(F)c(Cl)c3)c2cc1OCCCN1CCOCC1 [Gefitinib]
IC50 [2]: > 2 µM

O=S(=O)(O)c1cc(O)c(O)c(S(=O)(=O)O)c1 [Tiron]
Inhibition of NTS-induced ERK tyrosine phosphorylation (in words) [3]: significantly inhibited | Inhibition of NTS-induced HER2 tyrosine phosphorylation (in words) [4]: significantly inhibited | Inhibition of NTS-induced EGFR tyrosine phosphorylation (in words) [5]: significantly inhibited | Effect on neurotensin-induced EGFR tyrosine phosphorylation (in words) [6]: reduced

COc1cccc(OC)c1-c1cc(C(=O)NC2(C(=O)O)C3CC4CC(C3)CC2C4)nn1-c1ccnc2cc(Cl)ccc12 (stereo not drawn) [SR48692]
Sensitivity to ionizing radiation (in words) [7]: enhanced sensitivity to ionizing radiation | IC50 [2]: 0.16 ± 0.025 µM | Effect on neurotensin-induced EGFR tyrosine phosphorylation (in words) [6]: reduced

CS(=O)(=O)CCNCc1ccc(-c2ccc3ncnc(Nc4ccc(OCc5cccc(F)c5)c(Cl)c4)c3c2)o1 [Lapatinib]
Effect on total tubulin (in words) [8]: no effect | Effect on NTS-induced ERK tyrosine phosphorylation (in words) ([3]; 1 or 10 μM lapatinib, Fig. 6): significantly reduced | IC50 [2]: > 2 µM | Effect on NTS-induced HER2 tyrosine phosphorylation (in words) ([4]; 1 or 10 μM lapatinib, Fig. 6): significantly reduced | Effect on NTS-induced EGFR tyrosine phosphorylation (in words) ([5]; 0.1 μM lapatinib): impaired | Effect on NTS-induced EGFR tyrosine phosphorylation (in words) ([5]; 1 or 10 μM lapatinib): significantly reduced | Shift of SR48692 dose-response curve (in words) [9]: shifted the SR48692 dose-response curve to the left

CNC(=O)[C@H](Cc1c[nH]c2ccccc12)NC(=O)[C@@H](CC(=O)NO)CC(C)C [GM6001]
Effect on neurotensin-induced EGFR tyrosine phosphorylation (in words) [1]: blocked

c1ccc2c(c1)[I+]c1ccccc1-2 [DPI, diphenylene iodonium]
Inhibition of NTS-induced ERK tyrosine phosphorylation (in words) [3]: significantly inhibited | Inhibition of NTS-induced HER2 tyrosine phosphorylation (in words) [4]: significantly inhibited | Inhibition of Nox and Duox enzymes (in words) [10]: inhibits all Nox and Duox enzymes | Inhibition of NTS-induced EGFR tyrosine phosphorylation (in words) [5]: significantly inhibited

C[C@@H]1CN([C@H]2CC[C@](C#N)(c3ccc(F)cc3)CC2)CC[C@]1(C(=O)O)c1ccccc1 [Levocabastine]
IC50 [2]: > 2 µM

CCCC(=O)[O-].[Na+] [Sodium butyrate]
Neurotensin receptor 1 densities (in words) [11]: reduced
